{"source": "patent US11248018B2", "about": "“Process for preparation of nicotinamide riboside (NR) and cosmetic composition comprising (NR and a phosphate-binding agent” (YISSUM RESEARCH DEVELOPMENT COMPANY OF THE HEBREW …, priority 2016, dated 2022)", "format_in_all_cases": "physicochemical", "key": {"[1]": {"assay": "One-stage hydrolysis of NAD^+ with ZrCl4 and calcium L-ascorbate in water at 80° C. (Example 2), concentrations over time", "settings": "for Relative Concentration: Example 2, ZrCl4 + calcium L-ascorbate, 80° C.", "protocol": "NMR spectra were recorded with 400 MHz Bruker spectrometer. Reversed phase HPLC column of RP-18 type (Chromolith performance RP18e (100-4.6 mm) UM8 086/001, Merck KGaA) using deionized HPLC-grade solvents in the following composition: 1% acetonitrile, 99% water. Flow rate was 0.1 mL/min, detection performed with UV detector at 260 nm. Mass Spectrometry (MS), 6200 series TOF/6500 series Q-TOF B.05.01 (B5125.1).\nIn a 250-ml flask, a mixture of NAD^+ (0.33 gr), ZrCl4 (0.58 gr) and 1.80 gr of calcium L-ascorbate in 100 ml of deionized water was heated to 80° C. for 2 days. Over this time period, full conversion of the NAD^+ was observed by HPLC. Decomposition of the desired NR product was also observed under these conditions, but to a lower extent in comparison with the process of Example 1. HR-MS spectrum of the product is MW of 255.10. The extent of the decomposition of the desired NR was determined by comparing the abundance of the desired peak to the abundance of the internal standard."}, "[2]": {"assay": "Hydrolysis of NAD^+ with phosphate binding agent (calcium L-ascorbate) alone in water at 80° C. (Example 3), concentrations over time", "settings": "for Relative Concentration: Example 3, calcium L-ascorbate alone, 80° C.", "protocol": "In a 250-ml flask, a mixture of NAD^+ (0.34 gr) and 1.8 gr of calcium L-ascorbate in 100 ml of deionized water was heated to 80° C. for 4 days. The mixture was analyzed every 3 hours using HPLC and ^31P-NMR.\nThe rate of the tertiary hydrolysis (decomposition of the NR) is slower. Under these conditions, the concentration of the NR remains essentially stable (˜10% decline) over 24 hours (steady-state). The concentration was determined by comparing the abundance of the desired peak to the abundance of the internal standard MS and ^1H- and ^31P-NMR (intensity of the signal). After this time the concentration of the NR decreased and the product was no longer present."}, "[3]": {"assay": "Stability of commercial NR product under hydrolytic conditions in deionized water, followed by NMR", "protocol": "Additionally, to establish the stability of the commercial NR product (Niagen® purchased from ChromaDex) under hydrolytic conditions, it was dissolved in deionized water as described herein and the mixture was analyzed every 3 hours using ^1H- and ^31P-NMR."}}, "data": [{"smiles": "NC(=O)c1ccc[n+]([C@@H]2O[C@H](CO)[C@@H](O)[C@H]2O)c1", "note": "[NR, 1-(β-D-Ribofuranosyl)-nicotinamide]", "values": [{"measurement": "Relative Concentration", "setting": "[1]; time 0 hours", "result": 0}, {"measurement": "Relative Concentration", "setting": "[1]; time 0.5 hours", "result": 0.05}, {"measurement": "Relative Concentration", "setting": "[1]; time 6 hours", "result": 0.06}, {"measurement": "Relative Concentration", "setting": "[1]; time 16 hours", "result": 0.02}, {"measurement": "Relative Concentration", "setting": "[1]; time 24 hours", "result": 0}, {"measurement": "stability of the NR concentrations", "setting": "[1]; NR-containing aqueous solution, ZrCl4 with phosphate-binding agent added concurrently", "result": "about 6 hours"}, {"measurement": "Relative Concentration", "setting": "[2]; time 0 hours", "result": 0}, {"measurement": "Relative Concentration", "setting": "[2]; time 0.5 hours", "result": 0.06}, {"measurement": "Relative Concentration", "setting": "[2]; time 6 hours", "result": 0.11}, {"measurement": "Relative Concentration", "setting": "[2]; time 16 hours", "result": 0.09}, {"measurement": "Relative Concentration", "setting": "[2]; time 24 hours", "result": 0.08}, {"measurement": "Relative Concentration", "setting": "[2]; time 36 hours", "result": 0.01}, {"measurement": "Relative Concentration", "setting": "[2]; time 48 hours", "result": 0}, {"measurement": "decline of NR concentration", "setting": "[2]; over 24 hours (steady-state), Example 3", "result": "~10", "unit": "%"}, {"measurement": "time the concentration of the product remains stable (decline of no more than 10%)", "setting": "[2]; solution from degrading NAD^+ with phosphate-binding agent alone, absence of ZrCl4", "result": "at least 24 hours"}]}, {"smiles": "NC(=O)c1cccnc1", "note": "[Nicotinamide, nicotinamide]", "values": [{"measurement": "Relative Concentration", "setting": "[1]; time 0 hours", "result": 0}, {"measurement": "Relative Concentration", "setting": "[1]; time 0.5 hours", "result": 0.1}, {"measurement": "Relative Concentration", "setting": "[1]; time 6 hours", "result": 0.19}, {"measurement": "Relative Concentration", "setting": "[1]; time 16 hours", "result": 0.32}, {"measurement": "Relative Concentration", "setting": "[1]; time 24 hours", "result": 0.48}, {"measurement": "Relative Concentration", "setting": "[2]; time 0 hours", "result": 0}, {"measurement": "Relative Concentration", "setting": "[2]; time 0.5 hours", "result": 0.1}, {"measurement": "Relative Concentration", "setting": "[2]; time 6 hours", "result": 0.16}, {"measurement": "Relative Concentration", "setting": "[2]; time 16 hours", "result": 0.32}, {"measurement": "Relative Concentration", "setting": "[2]; time 24 hours", "result": 0.48}, {"measurement": "Relative Concentration", "setting": "[2]; time 36 hours", "result": 0.41}, {"measurement": "Relative Concentration", "setting": "[2]; time 48 hours", "result": 0.41}]}, {"smiles": "NC(=O)c1ccc[n+]([C@@H]2O[C@H](CO)[C@@H](O)[C@H]2O)c1", "note": "[NR (Niagen ®), Nicotinamide riboside]", "values": [{"measurement": "NR peak at 6.15 ppm in 1H-NMR versus DMF internal standard", "setting": "[3]; after 24 hours", "result": "NR has degraded"}, {"measurement": "Relative Concentration", "setting": "[3]; time 0.5 hours", "result": 1}, {"measurement": "Relative Concentration", "setting": "[3]; time 3 hours", "result": 0.62}, {"measurement": "Relative Concentration", "setting": "[3]; time 6 hours", "result": 0.48}, {"measurement": "Relative Concentration", "setting": "[3]; time 24 hours", "result": 0.02}, {"measurement": "Relative Concentration", "setting": "[3]; time 48 hours", "result": 0}]}, {"smiles": "NC(=O)C1=CN([C@@H]2O[C@H](COP(=O)(O)OP(=O)(O)OC[C@H]3O[C@@H](n4cnc5c(N)ncnc54)[C@H](O)[C@@H]3O)[C@@H](O)[C@H]2O)C=CC1", "note": "[NAD^+, β-nicotinamide adenine dinucleotide]", "values": [{"measurement": "Relative Concentration", "setting": "[1]; time 0 hours", "result": 1}, {"measurement": "Relative Concentration", "setting": "[1]; time 0.5 hours", "result": 0.66}, {"measurement": "Relative Concentration", "setting": "[1]; time 6 hours", "result": 0.32}, {"measurement": "Relative Concentration", "setting": "[1]; time 16 hours", "result": 0.05}, {"measurement": "Relative Concentration", "setting": "[1]; time 24 hours", "result": 0}, {"measurement": "Relative Concentration", "setting": "[2]; time 0 hours", "result": 1}, {"measurement": "Relative Concentration", "setting": "[2]; time 0.5 hours", "result": 0.86}, {"measurement": "Relative Concentration", "setting": "[2]; time 6 hours", "result": 0.62}, {"measurement": "Relative Concentration", "setting": "[2]; time 16 hours", "result": 0.55}, {"measurement": "Relative Concentration", "setting": "[2]; time 24 hours", "result": 0.38}, {"measurement": "Relative Concentration", "setting": "[2]; time 36 hours", "result": 0.22}, {"measurement": "Relative Concentration", "setting": "[2]; time 48 hours", "result": 0.2}]}]}
